Assay results as given in patent US20230227398A1, “MESCALINE DERIVATIVES WITH MODIFIED ACTION” (Mind Medicine, Inc., priority 2021, published 2023).
Entries after “also recorded” stand apart in the source; their conditions may differ.

How the values were obtained:
[1] = Duration of action and potency of mescaline derivatives; design: species or system humans; conditions: in vivo
From the text: Together, the in vitro profiles of mescaline and its derivatives represented in FIG. 1 compared with that of psilocin and LSD indicate overall psychedelic properties of all compounds but also differences that likely manifest when used in humans. Accordingly, some mescaline derivatives will exert psychedelic acute effect profiles that are more beneficial to some patients including but not limited to: more overall positive effects, more or less perceptual effects, more emotional effects, less anxiety, less cardio-stimulant effects, less adverse effects, less nausea, longer and also shorter effects among other properties and compared to mescaline. Specifically, taken together the pharmacological data and structural specifics on the substances tested herein some compounds are of particular interest. FE and FP have a relatively short duration of action (<6 hours) compared with mescaline and potentially empathogenic MDMA-like effects.
The compounds represented by FIG. 1 act with shorter, with similar or with longer duration of action in human in comparison to the original mescaline molecule. This is triggered by modification of the molecular structure in FIG. 1.

[2] = biological target: 5-HT2A receptor (Homo sapiens, UniProt P28223); conditions: cited from earlier work
[3] = biological target: D2 receptors (Homo sapiens, UniProt P14416); conditions: cited from earlier work
[4] = biological target: 5-HT transporter (SERT) (Homo sapiens, UniProt P31645); conditions: cited from earlier work
[5] = tested on: monoamine transporters; assay: Inhibition of monoamine transport (in vitro profiling); type: biochemical
From the text: Activity of compounds at monoamine transporters are thought to mediate MDMA-like empathogenic effects (Hysek et al., 2012). Importantly, mescaline is a very weak 5-HT2A receptor ligand and high doses are needed to induce psychoactive effects in humans. However, despite its low potency, mescaline can have extraordinarily strong psychedelic effects in humans at high doses and the same is likely the case for the substances developed within the present invention although 10-20-fold higher potency is also possible in some compounds, to be evaluated in detail clinically. Key results of pharmacological profiling of the compounds described herein were: […]

[6] = humans, cited from earlier work
[7] = biological target: T1, serotonin 5-HT2A receptor (Homo sapiens, UniProt P28223); conditions: background art; cited from earlier work
[8] = biological target: T2, 5-HT1A receptor (Homo sapiens, UniProt P08908); conditions: background art; cited from earlier work
T2 sequence (P08908 1-422): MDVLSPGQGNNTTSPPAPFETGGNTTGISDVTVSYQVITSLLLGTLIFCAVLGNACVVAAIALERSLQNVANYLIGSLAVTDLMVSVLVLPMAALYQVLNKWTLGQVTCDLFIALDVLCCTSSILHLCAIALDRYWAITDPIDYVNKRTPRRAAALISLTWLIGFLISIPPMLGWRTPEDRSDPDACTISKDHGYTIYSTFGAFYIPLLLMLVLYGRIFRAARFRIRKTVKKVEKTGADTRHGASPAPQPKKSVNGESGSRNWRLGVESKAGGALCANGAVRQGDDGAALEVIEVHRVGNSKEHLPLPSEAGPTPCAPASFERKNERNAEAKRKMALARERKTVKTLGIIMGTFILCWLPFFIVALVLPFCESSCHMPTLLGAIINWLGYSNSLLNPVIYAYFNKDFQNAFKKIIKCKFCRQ

[9] = biological target: T3, α2A receptors (Homo sapiens, UniProt P08913); conditions: background art; cited from earlier work
T3 sequence (P08913 1-465): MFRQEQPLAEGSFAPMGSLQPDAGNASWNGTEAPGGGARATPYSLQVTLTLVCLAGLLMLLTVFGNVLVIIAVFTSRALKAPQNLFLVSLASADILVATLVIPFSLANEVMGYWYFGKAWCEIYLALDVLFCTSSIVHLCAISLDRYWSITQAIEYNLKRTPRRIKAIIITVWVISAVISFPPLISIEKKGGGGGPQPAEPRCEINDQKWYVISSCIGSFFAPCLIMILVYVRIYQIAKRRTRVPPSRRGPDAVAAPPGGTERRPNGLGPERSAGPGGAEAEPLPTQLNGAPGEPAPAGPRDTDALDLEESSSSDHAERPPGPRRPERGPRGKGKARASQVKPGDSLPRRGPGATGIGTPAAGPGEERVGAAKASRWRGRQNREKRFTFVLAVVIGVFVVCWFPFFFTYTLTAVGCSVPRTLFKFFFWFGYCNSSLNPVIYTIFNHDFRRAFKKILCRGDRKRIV

[10] = humans (Charalampous, 1966); cited from earlier work
[11] = tested on: dopaminergic receptors; assay: Binding to dopaminergic receptors (in vitro profiling); conditions: in contrast to LSD
[12] = biological target: T1, serotonin 5-HT2A receptor; assay: 5-HT2A receptor binding (in vitro profiling at key targets)

Chain of 5-HT2A receptor (P28223 whole entry): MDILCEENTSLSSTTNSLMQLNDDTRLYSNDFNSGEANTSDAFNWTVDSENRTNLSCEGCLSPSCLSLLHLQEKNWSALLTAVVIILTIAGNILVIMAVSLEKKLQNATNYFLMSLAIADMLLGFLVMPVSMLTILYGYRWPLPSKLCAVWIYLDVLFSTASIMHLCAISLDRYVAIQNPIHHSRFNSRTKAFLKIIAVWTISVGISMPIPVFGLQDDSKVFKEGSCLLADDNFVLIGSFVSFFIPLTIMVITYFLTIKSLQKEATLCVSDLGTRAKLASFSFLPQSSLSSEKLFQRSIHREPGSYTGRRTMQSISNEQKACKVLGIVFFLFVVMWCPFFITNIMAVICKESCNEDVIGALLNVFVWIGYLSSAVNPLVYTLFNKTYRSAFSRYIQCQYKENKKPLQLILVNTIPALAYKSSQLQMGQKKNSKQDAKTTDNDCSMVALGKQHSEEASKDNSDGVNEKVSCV
T1 sequence (P28223 whole entry): as above
Chain of D2 receptors (P14416 whole entry): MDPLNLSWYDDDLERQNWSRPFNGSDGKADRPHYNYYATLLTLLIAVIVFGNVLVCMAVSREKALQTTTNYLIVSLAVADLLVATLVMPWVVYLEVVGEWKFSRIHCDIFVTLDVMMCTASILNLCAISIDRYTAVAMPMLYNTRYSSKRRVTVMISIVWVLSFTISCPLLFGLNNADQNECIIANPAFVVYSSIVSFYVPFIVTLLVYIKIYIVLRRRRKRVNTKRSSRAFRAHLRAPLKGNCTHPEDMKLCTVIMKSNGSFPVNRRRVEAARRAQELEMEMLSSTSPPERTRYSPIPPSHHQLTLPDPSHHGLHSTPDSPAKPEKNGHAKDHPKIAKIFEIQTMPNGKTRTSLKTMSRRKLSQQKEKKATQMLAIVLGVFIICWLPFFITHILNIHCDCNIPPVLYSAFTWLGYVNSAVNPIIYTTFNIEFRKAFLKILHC
Chain of 5-HT transporter (SERT) (P31645 whole entry): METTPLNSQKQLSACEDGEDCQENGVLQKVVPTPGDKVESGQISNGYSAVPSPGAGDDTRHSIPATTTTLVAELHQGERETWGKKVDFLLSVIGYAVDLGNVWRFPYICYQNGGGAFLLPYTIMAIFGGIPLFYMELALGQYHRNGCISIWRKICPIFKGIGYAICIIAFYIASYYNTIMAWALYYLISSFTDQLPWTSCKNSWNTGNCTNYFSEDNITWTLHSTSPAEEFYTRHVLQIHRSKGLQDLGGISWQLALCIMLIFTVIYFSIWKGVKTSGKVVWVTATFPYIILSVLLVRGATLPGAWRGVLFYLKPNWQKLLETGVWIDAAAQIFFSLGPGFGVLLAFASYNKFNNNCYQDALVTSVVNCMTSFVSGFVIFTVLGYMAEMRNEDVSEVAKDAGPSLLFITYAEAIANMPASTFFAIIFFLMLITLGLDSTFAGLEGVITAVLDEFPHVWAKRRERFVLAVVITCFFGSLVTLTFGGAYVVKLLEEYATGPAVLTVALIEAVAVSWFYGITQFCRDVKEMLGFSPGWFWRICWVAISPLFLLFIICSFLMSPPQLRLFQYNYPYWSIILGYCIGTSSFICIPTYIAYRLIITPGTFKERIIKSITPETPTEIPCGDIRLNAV

## COc1cc(CCN)cc(OC)c1OC(F)F.Cl [DFM, 4-Difluoromethoxy-3,5-dimethoxyphenethylamine hydrochloride]
[1]
  potency (in words): relatively potent

## CN(C)CCc1c[nH]c2ccccc12 [DMT, N,N-dimethyltryptamine]
[2]
  agonism / stimulation of the 5-HT2A receptor (in words): agonists

## CCN(CC)C(=O)[C@@H]1C=C2c3cccc4[nH]cc(c34)C[C@H]2N(C)C1 [LSD, lysergic acid diethylamide]
[3]
  affinity / activity at D2 receptors (in words): has activity
[2]
  agonism / stimulation of the 5-HT2A receptor (in words): agonists; also recorded: potently stimulates

## CN(C)CCc1c[nH]c2cccc(O)c12 [Psilocin]
[4]
  interaction with / inhibition of SERT (in words): inhibits
[2]
  agonism / stimulation of the 5-HT2A receptor (in words): stimulates

## COc1cc(CCN)cc(OC)c1OCC(F)(F)F.Cl [TFE, 3,5-Dimethoxy-4-(2,2,2-trifluoroethoxy)phenethylamine hydrochloride]
[1]
  potency (in words): relatively potent

## COc1cc(CCN)cc(OC)c1OC [mescaline]
[5]
  inhibition of monoamine transport (in words): did not inhibit monoamine transport
[6]; dose-dependently
  subjective effects last (duration): 10 to 16 h
[6]; psychoactive doses
  subjective effects appear (onset): ≤ 30 min
  subjective effects peak: 4 h
[6]
  doses needed to induce a full psychedelic experience: 200 to 800 mg
[7]
  binding to 5-HT2A receptor (in words): rather low concentration range
[4]
  interaction with / inhibition of SERT (in words): do not interact
[3]
  affinity / activity at D2 receptors (in words): no affinity
[2]
  agonism / stimulation of the 5-HT2A receptor (in words): agonists
[8]
  binding to 5-HT1A receptor (in words): rather low concentration range
[9]
  binding to α2A receptors (in words): rather low concentration range
[10]
  eliminated in urine unchanged, fraction of the dose ingested: up to two thirds
  plasma half-life: approximately 6 hours
[11]
  binding to dopaminergic receptors (in words): did not relevantly bind
[12]
  5-HT2A receptor binding affinity / binding potency (in words): very weak
